From patent US8192962B2, “Processes for detecting toxic substances” (Daikin Industries, Ltd., priority 2001, dated 2012)

Test system: Transport facilitation protein genes
Assay: DNA chip mRNA expression in yeast, transport facilitation protein genes (Table 5)
Format: cell-based, Saccharomyces cerevisiae S288C
Method in brief: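 In this screen, yeast in logarithmic growth are challenged for two hours with a toxic substance at a non-lethal inhibitory concentration. Their mRNA, converted to Cy3- or Cy5-labeled cDNA, hybridizes at 65° C. to a chip spanning every yeast gene, and expression is expressed as a ratio to untreated cells.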

Substance: manganese ethylenebis(dithiocarbamate) [(8)]
- The level of expressed mRNA in the presence of chemical substance/The level of expressed mRNA in the absence of chemical substance (yeast gene YBL030C): 0.8
- The level of expressed mRNA in the presence of chemical substance/The level of expressed mRNA in the absence of chemical substance (yeast gene YBL099W): 0.8
- The level of expressed mRNA in the presence of chemical substance/The level of expressed mRNA in the absence of chemical substance (yeast gene YBR052C): 1.3
- The level of expressed mRNA in the presence of chemical substance/The level of expressed mRNA in the absence of chemical substance (yeast gene YBR068C): 1.0
- The level of expressed mRNA in the presence of chemical substance/The level of expressed mRNA in the absence of chemical substance (yeast gene YBR127C): 1.1
- The level of expressed mRNA in the presence of chemical substance/The level of expressed mRNA in the absence of chemical substance (yeast gene YBR132C): 0.8
- The level of expressed mRNA in the presence of chemical substance/The level of expressed mRNA in the absence of chemical substance (yeast gene YBR207W): 0.9
- The level of expressed mRNA in the presence of chemical substance/The level of expressed mRNA in the absence of chemical substance (yeast gene YBR293W): 0.9
- The level of expressed mRNA in the presence of chemical substance/The level of expressed mRNA in the absence of chemical substance (yeast gene YBR294W): 1.0
- The level of expressed mRNA in the presence of chemical substance/The level of expressed mRNA in the absence of chemical substance (yeast gene YBR295W): 0.9
- The level of expressed mRNA in the presence of chemical substance/The level of expressed mRNA in the absence of chemical substance (yeast gene YBR298C): 0.5
- The level of expressed mRNA in the presence of chemical substance/The level of expressed mRNA in the absence of chemical substance (yeast gene YCL025C): 0.7
- The level of expressed mRNA in the presence of chemical substance/The level of expressed mRNA in the absence of chemical substance (yeast gene YCL038C): 1.2
- The level of expressed mRNA in the presence of chemical substance/The level of expressed mRNA in the absence of chemical substance (yeast gene YCR024C-A): 0.8
- The level of expressed mRNA in the presence of chemical substance/The level of expressed mRNA in the absence of chemical substance (yeast gene YCR037C): 0.7
- The level of expressed mRNA in the presence of chemical substance/The level of expressed mRNA in the absence of chemical substance (yeast gene YCR098C): 1.0
- The level of expressed mRNA in the presence of chemical substance/The level of expressed mRNA in the absence of chemical substance (yeast gene YDL128W): 0.8
- The level of expressed mRNA in the presence of chemical substance/The level of expressed mRNA in the absence of chemical substance (yeast gene YDL198C): 1.1
- The level of expressed mRNA in the presence of chemical substance/The level of expressed mRNA in the absence of chemical substance (yeast gene YDL210W): 1.1
- The level of expressed mRNA in the presence of chemical substance/The level of expressed mRNA in the absence of chemical substance (yeast gene YDL245C): 1.2
- The level of expressed mRNA in the presence of chemical substance/The level of expressed mRNA in the absence of chemical substance (yeast gene YDR038C): 0.9
- The level of expressed mRNA in the presence of chemical substance/The level of expressed mRNA in the absence of chemical substance (yeast gene YDR039C): 0.6
- The level of expressed mRNA in the presence of chemical substance/The level of expressed mRNA in the absence of chemical substance (yeast gene YDR086C): 1.9
- The level of expressed mRNA in the presence of chemical substance/The level of expressed mRNA in the absence of chemical substance (yeast gene YDR270W): 1.2
- The level of expressed mRNA in the presence of chemical substance/The level of expressed mRNA in the absence of chemical substance (yeast gene YDR298C): 1.2
- The level of expressed mRNA in the presence of chemical substance/The level of expressed mRNA in the absence of chemical substance (yeast gene YDR342C): 1.2
- The level of expressed mRNA in the presence of chemical substance/The level of expressed mRNA in the absence of chemical substance (yeast gene YDR343C): 1.2
- The level of expressed mRNA in the presence of chemical substance/The level of expressed mRNA in the absence of chemical substance (yeast gene YDR345C): 1.2
- The level of expressed mRNA in the presence of chemical substance/The level of expressed mRNA in the absence of chemical substance (yeast gene YDR387C): 0.7
- The level of expressed mRNA in the presence of chemical substance/The level of expressed mRNA in the absence of chemical substance (yeast gene YDR497C): 0.6
- The level of expressed mRNA in the presence of chemical substance/The level of expressed mRNA in the absence of chemical substance (yeast gene YEL027W): 0.9
- The level of expressed mRNA in the presence of chemical substance/The level of expressed mRNA in the absence of chemical substance (yeast gene YEL063C): 0.6
- The level of expressed mRNA in the presence of chemical substance/The level of expressed mRNA in the absence of chemical substance (yeast gene YEL065W): 0.9
- The level of expressed mRNA in the presence of chemical substance/The level of expressed mRNA in the absence of chemical substance (yeast gene YER053C): 1.3
- The level of expressed mRNA in the presence of chemical substance/The level of expressed mRNA in the absence of chemical substance (yeast gene YFL011W): 0.8
- The level of expressed mRNA in the presence of chemical substance/The level of expressed mRNA in the absence of chemical substance (yeast gene YFL041W): 1.0
- The level of expressed mRNA in the presence of chemical substance/The level of expressed mRNA in the absence of chemical substance (yeast gene YFL050C): 0.9
- The level of expressed mRNA in the presence of chemical substance/The level of expressed mRNA in the absence of chemical substance (yeast gene YFL054C): 1.5
- The level of expressed mRNA in the presence of chemical substance/The level of expressed mRNA in the absence of chemical substance (yeast gene YGL006W): 0.9
- The level of expressed mRNA in the presence of chemical substance/The level of expressed mRNA in the absence of chemical substance (yeast gene YGL008C): 0.7
- The level of expressed mRNA in the presence of chemical substance/The level of expressed mRNA in the absence of chemical substance (yeast gene YGL104C): 0.8
- The level of expressed mRNA in the presence of chemical substance/The level of expressed mRNA in the absence of chemical substance (yeast gene YGL167C): 0.8
- The level of expressed mRNA in the presence of chemical substance/The level of expressed mRNA in the absence of chemical substance (yeast gene YGL255W): 0.7
- The level of expressed mRNA in the presence of chemical substance/The level of expressed mRNA in the absence of chemical substance (yeast gene YGR055W): 1.1
- The level of expressed mRNA in the presence of chemical substance/The level of expressed mRNA in the absence of chemical substance (yeast gene YGR065C): 1.0
- The level of expressed mRNA in the presence of chemical substance/The level of expressed mRNA in the absence of chemical substance (yeast gene YGR082W): 0.8
- The level of expressed mRNA in the presence of chemical substance/The level of expressed mRNA in the absence of chemical substance (yeast gene YGR096W): 1.0
- The level of expressed mRNA in the presence of chemical substance/The level of expressed mRNA in the absence of chemical substance (yeast gene YGR138C): 1.0
- The level of expressed mRNA in the presence of chemical substance/The level of expressed mRNA in the absence of chemical substance (yeast gene YGR191W): 0.7
- The level of expressed mRNA in the presence of chemical substance/The level of expressed mRNA in the absence of chemical substance (yeast gene YGR197C): 0.8
